Reference: ChEMBL document CHEMBL1201862, “PubChem BioAssay data set” (2004)
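In this assay, cells in 96-well plates receive the compound at five concentrations for 48 hours. Endpoints are linearly interpolated between the surrounding concentrations. Abbreviation: GI50, concentration required for 50% inhibition of growth.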 Active and inactive are the calls of the source. Rule as the data show it: active = GI50 up to about 1.1 µM and inactive = higher.

Assays:
Experiment in all cases: NCI tumour cell line growth inhibition, 48 h
786-0 = test system: 786-0
A498 = test system: A498
A549 = test system: A549
CAKI-1 = test system: CAKI-1
CCRF-CEM = test system: CCRF-CEM
COLO 205 = test system: COLO 205
DLD-1 = test system: DLD-1
DMS-114 = test system: DMS-114
DMS-273 = test system: DMS-273
EKVX = test system: EKVX
HCC 2998 = test system: HCC 2998
HCT-116 = test system: HCT-116
HCT-15 = test system: HCT-15
HL-60 = test system: HL-60
HOP-62 = test system: HOP-62
HOP-92 = test system: HOP-92
HT-29 = test system: HT-29
IGROV-1 = test system: IGROV-1
K562 = test system: K562
KM-20L2 = test system: KM-20L2
KM12 = test system: KM12
LOX IMVI = test system: LOX IMVI
LXFL 529 = test system: LXFL 529
M14 = test system: M14
M19-MEL = test system: M19-MEL
MOLT-4 = test system: MOLT-4
Malme-3M = test system: Malme-3M
NCI-H226 = test system: NCI-H226
NCI-H23 = test system: NCI-H23
NCI-H460 = test system: NCI-H460
NCI-H522 = test system: NCI-H522
OVCAR-3 = test system: OVCAR-3
OVCAR-5 = test system: OVCAR-5
OVCAR-8 = test system: OVCAR-8
RPMI-8226 = test system: RPMI-8226
RXF 393 = test system: RXF 393
SF-268 = test system: SF-268
SF-295 = test system: SF-295
SF-539 = test system: SF-539
SK-MEL-28 = test system: SK-MEL-28
SK-MEL-2 = test system: SK-MEL-2
SK-MEL-5 = test system: SK-MEL-5
SK-OV-3 = test system: SK-OV-3
SN12C = test system: SN12C
SNB-19 = test system: SNB-19
SNB-78 = test system: SNB-78
SR = test system: SR
SW-620 = test system: SW-620
TK-10 = test system: TK-10
U-251 = test system: U-251
UACC-257 = test system: UACC-257
UACC-62 = test system: UACC-62
UO-31 = test system: UO-31
XF498 = test system: XF498

## CCCCc1c2c(nc3c1CCc1cc4c(nc1-3)-c1nc3c(c(CCCC)c1CC4)CCC/C3=C\c1ccccc1)/C(=C/c1ccccc1)CCC2
786-0
  GI50: 25.2 µM (inactive)
A498
  GI50: > 100 µM (inactive)
A549
  GI50: > 100 µM (inactive)
CAKI-1
  GI50: 29.1 µM (inactive)
CCRF-CEM
  GI50: 48.6 µM (inactive)
COLO 205
  GI50: > 100 µM (inactive)
DLD-1
  GI50: > 100 µM (inactive)
DMS-114
  GI50: 47.5 µM (inactive)
DMS-273
  GI50: 35.2 µM (inactive)
EKVX
  GI50: > 100 µM (inactive)
HCC 2998
  GI50: 88.3 µM (inactive)
HCT-116
  GI50: 65.3 µM (inactive)
HCT-15
  GI50: > 100 µM
HL-60
  GI50: 62.1 µM (inactive)
HOP-62
  GI50: 36.9 µM (inactive)
HOP-92
  GI50: > 100 µM (inactive)
HT-29
  GI50: 85.3 µM (inactive)
IGROV-1
  GI50: 81.5 µM (inactive)
K562
  GI50: > 100 µM (inactive)
KM-20L2
  GI50: > 100 µM (inactive)
KM12
  GI50: 98.9 µM (inactive)
LOX IMVI
  GI50: > 100 µM (inactive)
LXFL 529
  GI50: 30.8 µM (inactive)
M14
  GI50: > 100 µM (inactive)
M19-MEL
  GI50: > 100 µM (inactive)
MOLT-4
  GI50: > 100 µM (inactive)
Malme-3M
  GI50: > 100 µM (inactive)
NCI-H226
  GI50: > 100 µM (inactive)
NCI-H23
  GI50: 73.5 µM (inactive)
NCI-H460
  GI50: 28.2 µM (inactive)
NCI-H522
  GI50: 44.1 µM (inactive)
OVCAR-3
  GI50: 40.6 µM (inactive)
OVCAR-5
  GI50: > 100 µM (inactive)
OVCAR-8
  GI50: > 100 µM (inactive)
RPMI-8226
  GI50: > 100 µM (inactive)
RXF 393
  GI50: 23.3 µM (inactive)
SF-268
  GI50: > 100 µM (inactive)
SF-295
  GI50: 78.9 µM (inactive)
SF-539
  GI50: 33.5 µM (inactive)
SK-MEL-28
  GI50: > 100 µM (inactive)
SK-MEL-2
  GI50: 35.2 µM (inactive)
SK-MEL-5
  GI50: 69.7 µM (inactive)
SK-OV-3
  GI50: 36.2 µM (inactive)
SN12C
  GI50: > 100 µM (inactive)
SNB-19
  GI50: 35.9 µM (inactive)
SNB-78
  GI50: 39.4 µM (inactive)
SR
  GI50: > 100 µM (inactive)
SW-620
  GI50: 67 µM (inactive)
TK-10
  GI50: 51.2 µM (inactive)
U-251
  GI50: 47.3 µM (inactive)
UACC-257
  GI50: > 100 µM (inactive)
UACC-62
  GI50: 97.3 µM (inactive)
UO-31
  GI50: > 100 µM (inactive)
XF498
  GI50: 32.5 µM (inactive)
